# Experiments:
# [1] = target: T1, human TLR3 (Homo sapiens, UniProt O15455); test: TLR ligand screening: NF-κB activation (SEAP reporter) in HEK293 cells expressing TLR3; assay type: cell-based; conditions: one concentration: NTR001 10 uM, Inosine 100 uM; FIG. 2
# T1 construct: expressed in transfected cells; host or cells: HEK293
# T1 sequence (O15455 24-904): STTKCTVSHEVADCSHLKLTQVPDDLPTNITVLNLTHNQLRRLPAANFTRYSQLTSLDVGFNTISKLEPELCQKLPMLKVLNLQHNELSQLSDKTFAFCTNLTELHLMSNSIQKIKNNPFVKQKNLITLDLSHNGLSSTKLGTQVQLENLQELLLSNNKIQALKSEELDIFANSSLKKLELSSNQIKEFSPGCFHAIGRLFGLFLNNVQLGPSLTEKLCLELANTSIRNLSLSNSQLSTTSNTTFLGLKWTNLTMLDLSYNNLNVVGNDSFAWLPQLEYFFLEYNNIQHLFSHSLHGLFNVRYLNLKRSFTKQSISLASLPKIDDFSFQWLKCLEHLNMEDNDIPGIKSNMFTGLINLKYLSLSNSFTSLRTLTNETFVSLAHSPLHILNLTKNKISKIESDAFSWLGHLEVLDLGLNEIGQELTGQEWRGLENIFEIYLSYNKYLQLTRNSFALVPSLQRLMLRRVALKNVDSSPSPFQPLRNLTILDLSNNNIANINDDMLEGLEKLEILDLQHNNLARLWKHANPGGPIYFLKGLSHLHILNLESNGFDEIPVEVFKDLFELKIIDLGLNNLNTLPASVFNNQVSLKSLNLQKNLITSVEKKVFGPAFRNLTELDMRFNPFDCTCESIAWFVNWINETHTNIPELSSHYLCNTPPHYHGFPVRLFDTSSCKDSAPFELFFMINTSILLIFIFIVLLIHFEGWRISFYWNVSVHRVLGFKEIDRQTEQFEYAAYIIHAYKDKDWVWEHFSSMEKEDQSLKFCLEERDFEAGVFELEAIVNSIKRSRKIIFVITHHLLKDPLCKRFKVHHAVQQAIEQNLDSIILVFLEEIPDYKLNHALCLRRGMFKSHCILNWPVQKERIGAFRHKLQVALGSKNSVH
# Protocol: (§1) Method: TLR stimulation is tested by assessing NF-κB activation in HEK293 cells expressing a given TLR. The Secreted Embryonic Alkaline Phosphatase (SEAP) reporter is under the control of a promoter inducible by the transcription factor NF-κB. This reporter gene allows the monitoring of signaling through the TLR, based on the activation of NF-κB. The compounds are evaluated at one concentration and compared to control ligands. This step is performed in triplicate.
# [2] = target: T2, human TLR4 (Homo sapiens, UniProt O00206+Q9Y6Y9); test: TLR ligand screening: NF-κB activation (SEAP reporter) in HEK293 cells expressing TLR4; assay type: cell-based; conditions: one concentration: Guanosine 100 uM, NTR001 10 uM, Inosine 100 uM; FIG. 2
# T2 construct: expressed in transfected cells; host or cells: HEK293
# Protocol: as §1
# [3] = target: T3, human TLR5 (Homo sapiens, UniProt O60602); test: TLR ligand screening: NF-κB activation (SEAP reporter) in HEK293 cells expressing TLR5; assay type: cell-based; conditions: one concentration: NTR001 10 uM, Inosine 100 uM; FIG. 2
# T3 construct: expressed in transfected cells; host or cells: HEK293
# Protocol: as §1
# [4] = target: T4, human TLR9 (Homo sapiens, UniProt Q9NR96); test: TLR ligand screening: NF-κB activation (SEAP reporter) in HEK293 cells expressing TLR9; assay type: cell-based; conditions: one concentration: NTR001 10 uM, Inosine 100 uM; FIG. 2
# T4 construct: expressed in transfected cells; host or cells: HEK293
# T4 sequence (Q9NR96 26-1032): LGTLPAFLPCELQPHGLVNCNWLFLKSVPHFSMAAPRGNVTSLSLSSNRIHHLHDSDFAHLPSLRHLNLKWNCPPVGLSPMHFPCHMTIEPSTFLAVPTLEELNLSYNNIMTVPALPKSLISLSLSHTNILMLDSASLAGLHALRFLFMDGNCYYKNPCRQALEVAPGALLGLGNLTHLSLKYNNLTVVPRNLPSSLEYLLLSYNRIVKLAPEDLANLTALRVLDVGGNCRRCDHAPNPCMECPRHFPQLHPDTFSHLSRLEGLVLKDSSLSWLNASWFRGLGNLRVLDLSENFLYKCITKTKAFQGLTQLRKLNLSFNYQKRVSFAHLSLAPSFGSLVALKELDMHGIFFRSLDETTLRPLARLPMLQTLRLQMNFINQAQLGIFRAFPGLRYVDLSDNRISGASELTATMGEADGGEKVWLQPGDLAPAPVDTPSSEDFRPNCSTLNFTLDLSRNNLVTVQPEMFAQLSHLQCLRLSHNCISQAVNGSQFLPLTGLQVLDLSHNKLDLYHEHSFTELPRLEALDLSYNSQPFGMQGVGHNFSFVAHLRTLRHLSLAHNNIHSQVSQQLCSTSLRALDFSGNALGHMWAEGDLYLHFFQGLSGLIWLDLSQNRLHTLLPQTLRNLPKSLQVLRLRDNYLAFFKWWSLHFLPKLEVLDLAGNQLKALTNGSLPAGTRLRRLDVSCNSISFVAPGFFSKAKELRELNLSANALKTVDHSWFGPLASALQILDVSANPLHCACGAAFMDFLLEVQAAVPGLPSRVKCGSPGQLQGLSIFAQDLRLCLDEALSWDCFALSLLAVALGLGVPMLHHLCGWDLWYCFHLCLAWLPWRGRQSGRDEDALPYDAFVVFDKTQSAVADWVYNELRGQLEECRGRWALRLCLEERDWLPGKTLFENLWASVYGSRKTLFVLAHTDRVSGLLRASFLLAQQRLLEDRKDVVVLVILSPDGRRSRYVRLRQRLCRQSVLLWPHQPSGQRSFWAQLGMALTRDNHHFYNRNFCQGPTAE
# Protocol: as §1
# [5] = test system: immune response to tetanus toxoid vaccine; test: PNPi as adjuvant in tetanus toxoid vaccine efficacy study (mouse); assay type: in vivo; conditions: mice, p.o., ELISA
# [6] = test system: B16 tumors; test: Syngeneic mouse melanoma model; assay type: in vivo, C57BL/6 mice
# Protocol: Method: Cancer cells were injected subcutaneously in right flank of each mouse, 1×10^4 cells in 0.1 ml PBS with 20% Matrigel. Treatment with the NTR001 was initiated on day 6 after injection of tumor cells. Tumor volume and survival were recorded every 3-4 days.
# [7] = test system: L. monocytogenes (ATCC Strain35152, hemolytic substrain); test: Mouse model of L. monocytogenes infection; conditions: Balb/c mice infected i.v. with 1×10^6 CFU; 30 mg/kg PO or IP, 2 mg/kg drinking water; FIGS. 7 and 9
# T2 sequence (O00206 24-839): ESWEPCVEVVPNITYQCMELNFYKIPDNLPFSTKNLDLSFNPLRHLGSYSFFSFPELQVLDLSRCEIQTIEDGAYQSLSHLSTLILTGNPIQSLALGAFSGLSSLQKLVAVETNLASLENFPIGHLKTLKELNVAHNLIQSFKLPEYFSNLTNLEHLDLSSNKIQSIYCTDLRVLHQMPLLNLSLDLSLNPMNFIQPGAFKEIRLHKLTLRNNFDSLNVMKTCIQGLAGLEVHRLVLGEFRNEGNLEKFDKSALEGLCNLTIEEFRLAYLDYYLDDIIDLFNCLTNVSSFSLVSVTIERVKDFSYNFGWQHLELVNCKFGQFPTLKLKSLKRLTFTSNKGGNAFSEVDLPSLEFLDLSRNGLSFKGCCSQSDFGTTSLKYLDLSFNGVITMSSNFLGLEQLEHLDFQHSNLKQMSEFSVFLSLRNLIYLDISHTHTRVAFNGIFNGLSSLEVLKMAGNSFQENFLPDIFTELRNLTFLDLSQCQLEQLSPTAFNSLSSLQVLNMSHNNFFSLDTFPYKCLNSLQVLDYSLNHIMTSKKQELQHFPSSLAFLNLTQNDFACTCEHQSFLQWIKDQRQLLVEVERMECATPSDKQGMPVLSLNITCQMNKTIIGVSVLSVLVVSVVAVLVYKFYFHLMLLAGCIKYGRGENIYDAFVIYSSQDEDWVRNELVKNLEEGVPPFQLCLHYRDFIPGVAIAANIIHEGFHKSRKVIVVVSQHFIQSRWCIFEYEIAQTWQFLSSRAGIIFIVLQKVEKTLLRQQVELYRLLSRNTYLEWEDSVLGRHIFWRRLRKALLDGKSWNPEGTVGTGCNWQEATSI
# T2 sequence (Q9Y6Y9 17-160 limits assumed): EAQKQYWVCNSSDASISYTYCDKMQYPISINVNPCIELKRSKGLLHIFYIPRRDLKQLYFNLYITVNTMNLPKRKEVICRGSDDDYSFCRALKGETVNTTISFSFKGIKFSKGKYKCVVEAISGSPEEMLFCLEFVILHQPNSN
# T3 sequence (O60602 21-858): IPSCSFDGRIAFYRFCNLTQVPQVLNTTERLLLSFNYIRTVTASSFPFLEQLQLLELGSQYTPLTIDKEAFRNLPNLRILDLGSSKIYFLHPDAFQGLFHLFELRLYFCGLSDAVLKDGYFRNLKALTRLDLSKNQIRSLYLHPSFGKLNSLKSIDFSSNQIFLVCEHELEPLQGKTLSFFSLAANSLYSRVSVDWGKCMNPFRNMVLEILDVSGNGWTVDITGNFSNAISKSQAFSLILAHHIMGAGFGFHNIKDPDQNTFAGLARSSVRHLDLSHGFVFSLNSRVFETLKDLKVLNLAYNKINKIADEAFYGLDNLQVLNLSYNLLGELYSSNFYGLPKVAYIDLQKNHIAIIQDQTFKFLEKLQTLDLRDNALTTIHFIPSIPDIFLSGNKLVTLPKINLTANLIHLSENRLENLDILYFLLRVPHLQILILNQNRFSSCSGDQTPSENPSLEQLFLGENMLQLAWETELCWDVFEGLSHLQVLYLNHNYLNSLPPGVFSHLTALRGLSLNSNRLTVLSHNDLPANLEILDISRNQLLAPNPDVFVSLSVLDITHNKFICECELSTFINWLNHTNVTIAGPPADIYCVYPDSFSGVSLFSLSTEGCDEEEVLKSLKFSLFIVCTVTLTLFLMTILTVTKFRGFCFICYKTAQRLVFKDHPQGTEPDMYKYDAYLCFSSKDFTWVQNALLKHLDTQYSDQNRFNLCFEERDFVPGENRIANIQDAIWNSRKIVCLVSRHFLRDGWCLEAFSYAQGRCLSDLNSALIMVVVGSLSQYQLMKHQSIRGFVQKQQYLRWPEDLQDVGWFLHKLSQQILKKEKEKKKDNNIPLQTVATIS
Compound,stimulatory effect on human TLR3 [1],stimulatory effect on human TLR4 [2],stimulatory effect on human TLR5 [3],stimulatory effect on human TLR9 [4],"serum tetanus toxoid antibody titers compared to the vehicle treated group ([5]; 30 mg/kg (6 days of treatment) and 60 mg/kg (3 days of treatment), day 38, FIG. 3)","serum interferon-g compared to the vehicle treated group ([5]; high dose group 60 mg/kg, day 30, FIG. 4)","tumor volume ([6]; B16 tumors in C57BL/6 mice, treatment from day 6, FIG. 5)","survival ([6]; NTR001 as single agent (30 mg/kg PO week on/off; 5 mg/kg drinking water 28 days), FIG. 6)",weight loss [7]
OC[C@H]1O[C@@H](n2cnc3c(O)ncnc32)[C@H](O)[C@@H]1O [Inosine],do not exhibit a stimulatory effect,do not exhibit a stimulatory effect,do not exhibit a stimulatory effect,do not exhibit a stimulatory effect,–,–,–,–,–
"O=c1[nH]cnc2c([C@@H]3N[C@H](CO)[C@@H](O)[C@H]3O)c[nH]c12 [NTR001, 7-[(2S,3S,4R,5R)-3,4-dihydroxy-5-(hydroxymethyl)-2-pyrrolidinyl]-1,5-dihydro-4H-pyrrolo [3,2-d]pyrimidin-4-one]",do not exhibit a stimulatory effect,do not exhibit a stimulatory effect,do not exhibit a stimulatory effect,do not exhibit a stimulatory effect,significantly elevated,elevated,significant decrease,0-20%,significant decrease in weight loss

# — patent US9452217B2, “Methods for potentiating immune response for the treatment of infectious diseases and cancer” (Nitor Therapeutics, priority 2013, dated 2016)
